# Laboratory results reported in patent publication US20190322676A1, “CERAMIDE GALACTOSYLTRANSFERASE INHIBITORS FOR THE TREATMENT OF DISEASE” (BioMarin Pharmaceutical Inc., priority 2016, published 2019).
# Where a name gives a salt, the structure may show the parent alone.
# Molecular target: T1, human CGT (ceramide galactosyltransferase), CHO/CGT lysate (Homo sapiens, UniProt Q16880)
# T1 construct: Full-length human CGT cDNA was cloned into the BamH1/Xho1 site of pcDNA3.1 (+); expressed in transfected cells; host or cells: Chinese hamster ovary (CHO) cells; lysate prepared with M-PER
# T1 sequence (Q16880 21-541): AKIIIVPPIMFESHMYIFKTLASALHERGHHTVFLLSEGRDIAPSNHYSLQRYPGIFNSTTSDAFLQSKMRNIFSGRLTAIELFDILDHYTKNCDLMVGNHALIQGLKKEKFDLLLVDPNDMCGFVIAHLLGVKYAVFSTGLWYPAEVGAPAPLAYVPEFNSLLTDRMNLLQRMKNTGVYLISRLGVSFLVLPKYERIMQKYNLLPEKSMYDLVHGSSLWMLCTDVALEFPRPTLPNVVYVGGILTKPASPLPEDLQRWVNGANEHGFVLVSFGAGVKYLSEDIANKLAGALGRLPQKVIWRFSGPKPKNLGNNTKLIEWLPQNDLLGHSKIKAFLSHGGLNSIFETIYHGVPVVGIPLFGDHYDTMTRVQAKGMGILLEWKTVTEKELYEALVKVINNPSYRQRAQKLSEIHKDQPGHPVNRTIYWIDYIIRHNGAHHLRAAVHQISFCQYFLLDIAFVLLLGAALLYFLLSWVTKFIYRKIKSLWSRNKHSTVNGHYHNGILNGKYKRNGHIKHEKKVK
# Assay: CGT enzyme assay, RapidFire/MS/MS readout with 0.01% Tween added (Table 1 ranges with two asterisks **)
# Assay type: biochemical
# Conditions: CGT enzymatic assay; range with two asterisks (**): RapidFire/MS/MS method with 0.01% Tween added
# Method: Full-length human CGT cDNA was cloned into the BamH1/Xho1 site of pcDNA3.1 (+) mammalian expression vector (V90-20, Invitrogen, Carlsbad, Calif.) and the plasmid was transfected into Chinese hamster ovary (CHO) cells. Lysate was prepared using M-PER (Mammalian Protein Extraction Reagent, ThermoFisher Scientific, Grand Island, N.Y.) in the presence of a protease inhibitor cocktail (P8340, Sigma, Saint Louis, Mo.). Each 100 mm dish (100% confluent, approximately 1×10^7 cells) was lysed with 250 μL of M-PER containing protease inhibitors. Protein concentration was determined using a Pierce BCA protein assay kit (ThermoFisher Scientific). Four micrograms of CHO/CGT lysate was incubated with various concentrations of a compound (0.001 μM-50 μM) in 10 mM HEPES (pH 7.2) containing 35 μM dioleoylphosphatidylcholine, 5 mM MgCl2, 5 mM MnCl2, 1% BSA, 15 mM KCl, 1 mM EGTA, 8 mM CHAPS, 10 μM C6-NBD-dihydro-ceramide and 17.5 μM UDP-galactose in a final reaction volume of 20 μL at 37° C. for 1 hour. The final concentration of DMSO was 0.5% in both compound-treated and mock-treated samples. Tween 80 (0.01%) was optionally added to the reaction mixture to help solubilize the compounds. Each individual reaction was diluted with 80 μL of methanol:acetronitrile (1:3) containing 5 μM N-docdecanoyl-NBD-galactosylceramide (internal standard) to stop the reaction. 200 μL H2O:acetonitile (1:1) was added to precipitate the protein. After sufficient mixing, the plates were centrifuged at 2469 g for 38 minutes, 200 μL of supernatant was transferred to a LC/MS 96-deep well plate and a second spin was performed at 2469 g for 10 minutes. The final supernatant was injected in triplicate for RapidFire/MS/MS analysis.
# Quantitative Analysis Using the RapidFire/MS/MS Method:
# The quantitative analysis of C6-NBD-dihydro-ceramide and C6-NBD-dihydro-galactosylceramide was performed on a Rapid Fire 360 high-throughput mass spectrometry system (Agilent Technologies, Palo Alto, Calif.) coupled with a API4000^+ triple quadrupole mass spectrometer (Applied Biosystems, Concord, Ontario, Canada). RapidFire software packages, including RapidFire Control panel, RapidFire UI and RapidFire Integrator (Agilent Technologies), were used to control the RapidFire instrument and to process data. Analyst 1.6.2 software packages (Applied Biosystems) were used to control the MS system and acquire MS data. […] of sample was loaded on a micro-scale C4 solid-phase extraction (SPE) cartridge (Agilent Technologies) and salts were removed using water supplemented with 0.1% formic acid at the flow rate of 1.5 mL/min for 3 sec. C6-NBD-dihydro-ceramide and C6-NBD-dihydro-galactosylceramide were co-eluted into the mass spectrometer using acetonitrile containing 0.1% formic acid at the flow rate of 1.0 mL/min for 3 sec. The total cycle time of one injection was 8 secs. The MS/MS detection was performed in ESI negative mode. The mass transition of C6-NBD-dihydro-galactosylceramide was m/z 752.6→678.6 using a −40 V collision energy, the mass transition of C6-NBD-dihydro-ceramide was m/z 590.6→115.8 using a −40 V collision energy and the mass transition of N-docdecanoyl-NBD-galactosylceramide was m/z 820.9→746.3 using a −45 V collision energy.
# The C6-NBD-dihydro-galactosylceramide reading was normalized first by dividing the peak area of C6-NBD-dihydro-galactosylceramide by the peak area of the internal standard, N-docdecanoyl-NBD-galactosylceramide. IC50 values (see Table 1, where data ranges with one asterix (*) correspond to analysis using the RapidFire/MS/MS method, and data ranges with two asterixes (**) correspond to analysis using the RapidFire/MS/MS method with 0.01% Tween added) were generated from sigmoidal dose-response curves (variable slope) with GraphPad Prism software (GraphPad Software, Inc., San Diego, Calif.) using the normalized peak areas of C6-NBD-dihydro-galactosylceramide or the percent inhibition of C6-NBD-dihydro-galactosylceramide accumulation relative to DMSO control. […]
row,Structure (SMILES),IC50
1,"N[C@H]1[C@@H]2CC[C@H]1CN(C(=O)[C@H](NS(=O)(=O)c1ccc3cc(OC4CCCC4)ccc3c1)C(F)(F)c1ccc(Cl)cc1)C2 [Compound 150-2, N—((S)-3-((1R,5S,8S)-8-amino-3-azabicyclo[3.2.1]octan-3-yl)-1-(4-chlorophenyl)-1,1-difluoro-3-oxopropan-2-yl)-6-(cyclopentyloxy)naphthalene-2-sulfonamide trifluoroacetate]",1 to 10 µM
2,"O=C([C@@H](NS(=O)(=O)c1ccc(OCC2CCCCC2)cc1)C(F)(F)c1ccc(-c2ccc(Cl)cc2)cc1)N1CCNCC1 [Compound 151-1, (R)—N-(1-(4′-chloro-[1,1′-biphenyl]-4-yl)-1,1-difluoro-3-oxo-3-(piperazin-1-yl)propan-2-yl)-4-(cyclohexylmethoxy)benzenesulfonamide trifluoroacetate]",1 to 10 µM
3,"O=C([C@H](NS(=O)(=O)c1ccc(OCC2CCCCC2)cc1)C(F)(F)c1ccc(-c2ccc(Cl)cc2)cc1)N1CCNCC1 [Compound 151-2, (S)—N-(1-(4′-chloro-[1,1′-biphenyl]-4-yl)-1,1-difluoro-3-oxo-3-(piperazin-1-yl)propan-2-yl)-4-(cyclohexylmethoxy) benzenesulfonamide trifluoroacetate]",30 to 100 µM
4,"NC1CC2CCC(C1)N2C(=O)[C@@H](NC(=O)[C@H](O)c1ccc(OCC2CCCCC2)cc1)C(F)(F)c1ccc(-c2ccc(Cl)cc2)cc1 (stereo partly drawn) [Compound 152-1, (2R)—N-((2R)-3-(3-amino-8-azabicyclo[3.2.1]octan-8-yl)-1-(4′-chloro-[1,1′-biphenyl]-4-yl)-1,1-difluoro-3-oxopropan-2-yl)-2-(4-(cyclohexylmethoxy)phenyl)-2-hydroxyacetamide trifluoroacetate]",1 to 10 µM
5,"NC1CC2CCC(C1)N2C(=O)[C@H](NC(=O)[C@@H](O)c1ccc(OCC2CCCCC2)cc1)C(F)(F)c1ccc(-c2ccc(Cl)cc2)cc1 (stereo partly drawn) [Compound 152-2, (2S)—N-((2S)-3-(3-amino-8-azabicyclo[3.2.1]octan-8-yl)-1-(4′-chloro-[1,1′-biphenyl]-4-yl)-1,1-difluoro-3-oxopropan-2-yl)-2-(4-(cyclohexylmethoxy)phenyl)-2-hydroxyacetamide trifluoroacetate]",30 to 100 µM
6,"NC1CC2CCC(C1)N2C(=O)[C@@H](NC(=O)[C@@H](O)c1ccc(OCC2CCCCC2)cc1)C(F)(F)c1ccc(-c2ccc(Cl)cc2)cc1 (stereo partly drawn) [Compound 152-3, (2S)—N-((2R)-3-(3-amino-8-azabicyclo[3.2.1]octan-8-yl)-1-(4′-chloro-[1,1′-biphenyl]-4-yl)-1,1-difluoro-3-oxopropan-2-yl)-2-(4-(cyclohexylmethoxy)phenyl)-2-hydroxyacetamide trifluoroacetate]",1 to 10 µM
7,"NC1CC2CCC(C1)N2C(=O)[C@H](NC(=O)[C@H](O)c1ccc(OCC2CCCCC2)cc1)C(F)(F)c1ccc(-c2ccc(Cl)cc2)cc1 (stereo partly drawn) [Compound 152-4, (2R)—N-((2S)-3-(3-amino-8-azabicyclo[3.2.1]octan-8-yl)-1-(4′-chloro-[1,1′-biphenyl]-4-yl)-1,1-difluoro-3-oxopropan-2-yl)-2-(4-(cyclohexylmethoxy)phenyl)-2-hydroxyacetamide trifluoroacetate]",30 to 100 µM
8,"CCOc1cc(-c2ccc(C(F)(F)[C@H](NS(=O)(=O)c3ccc(OCC4CCCCC4)cc3)C(=O)N3CCC(N)CC3)cc2)ccc1Cl [Compound 153-1, (R)—N-(3-(4-aminopiperidin-1-yl)-1-(4′-chloro-3′-ethoxy-[1,1′-biphenyl]-4-yl)-1,1-difluoro-3-oxopropan-2-yl)-4-(cyclohexylmethoxy)benzenesulfonamide trifluoroacetate]",1 to 10 µM
9,"CCOc1cc(-c2ccc(C(F)(F)[C@@H](NS(=O)(=O)c3ccc(OCC4CCCCC4)cc3)C(=O)N3CCC(N)CC3)cc2)ccc1Cl [Compound 153-2, (S)—N-(3-(4-aminopiperidin-1-yl)-1-(4′-chloro-3′-ethoxy-[1,1′-biphenyl]-4-yl)-1,1-difluoro-3-oxopropan-2-yl)-4-(cyclohexylmethoxy) benzenesulfonamide trifluoroacetate]",30 to 100 µM
10,"CCOc1cc(-c2ccc(C(F)(F)[C@@H](NS(=O)(=O)c3ccc4cc(OC5CCCC5)ccc4c3)C(=O)N3CCC(N)CC3)cc2)ccc1Cl [Compound 154-2, (S)—N-(3-(4-aminopiperidin-1-yl)-1-(4′-chloro-3′-ethoxy-[1,1′-biphenyl]-4-yl)-1,1-difluoro-3-oxopropan-2-yl)-6-(cyclopentyloxy)naphthalene-2-sulfonamide trifluoroacetate]",1 to 10 µM

# Second part, the molecule after the results:
row,IC50,Structure (SMILES)
1,1 to 10 µM,"CCOc1cc(-c2ccc(C(F)(F)[C@H](NS(=O)(=O)c3ccc4cc(OC5CCCC5)ccc4c3)C(=O)N3CCC(N)CC3)cc2)ccc1Cl [Compound 154-1, (R)—N-(3-(4-aminopiperidin-1-yl)-1-(4′-chloro-3′-ethoxy-[1,1′-biphenyl]-4-yl)-1,1-difluoro-3-oxopropan-2-yl)-6-(cyclopentyloxy)naphthalene-2-sulfonamide trifluoroacetate]"
2,< 1 µM,"N[C@@H]1CCN(C(=O)[C@@H](NS(=O)(=O)c2ccc(OCC3CCCCC3)cc2)C(F)(F)c2ccc(-c3ccc(Cl)cc3)cc2)C1 [Compound 155-1, N—((R)-3-((R)-3-aminopyrrolidin-1-yl)-1-(4′-chloro-[1,1′-biphenyl]-4-yl)-1,1-difluoro-3-oxopropan-2-yl)-4-(cyclohexylmethoxy)benzenesulfonamide trifluoroacetate]"
3,1 to 10 µM,"N[C@@H]1CCN(C(=O)[C@H](NS(=O)(=O)c2ccc(OCC3CCCCC3)cc2)C(F)(F)c2ccc(-c3ccc(Cl)cc3)cc2)C1 [Compound 155-2, N—((S)-3-((R)-3-aminopyrrolidin-1-yl)-1-(4′-chloro-[1,1′-biphenyl]-4-yl)-1,1-difluoro-3-oxopropan-2-yl)-4-(cyclohexylmethoxy) benzenesulfonamide trifluoroacetate]"
4,1 to 10 µM,"NC1CCN(C(=O)[C@@H](NS(=O)(=O)c2ccc(OCC3CCCCC3)cc2)C(F)(F)c2ccc(-c3ccccc3)cc2)CC1 [Compound 156-1, (R)—N-(1-([1,1′-biphenyl]-4-yl)-3-(4-aminopiperidin-1-yl)-1,1-difluoro-3-oxopropan-2-yl)-4-(cyclohexylmethoxy)benzenesulfonamide trifluoroacetate]"
5,30 to 100 µM,"NC1CCN(C(=O)[C@H](NS(=O)(=O)c2ccc(OCC3CCCCC3)cc2)C(F)(F)c2ccc(-c3ccccc3)cc2)CC1 [Compound 156-2, (S)—N-(1-([1,1′-biphenyl]-4-yl)-3-(4-aminopiperidin-1-yl)-1,1-difluoro-3-oxopropan-2-yl)-4-(cyclohexylmethoxy)benzenesulfonamide trifluoroacetate]"
